Experiment [1] in a line: Inhibition of baker's yeast alpha-glucosidase incubated for 30 mins using p-nitrophenyl-alpha-D-glucopyranoside substrate by spectrophotometry. The arrangement: species or system Saccharomyces cerevisiae.
In experiment [2] the test system is Saccharomyces cerevisiae. As to the kind of experiment: Irreversible inhibition of baker's yeast alpha-glucosidase at […] dialyzed for 24 hrs followed by compound re-treatment for 30 mins using p-nitrophenyl-alpha-D-glucopyranoside substrate.
Experiment [3] has as its system Saccharomyces cerevisiae. Description: Irreversible inhibition of baker's yeast alpha-glucosidase incubated for 30 mins using p-nitrophenyl-alpha-D-glucopyranoside substrate by spectrophotometry based Lineweaver-Burk plot analysis.
For experiment [4], the system named is Saccharomyces cerevisiae. As to the kind of experiment: Mixed competitive inhibition of baker's yeast alpha-glucosidase incubated for 30 mins using p-nitrophenyl-alpha-D-glucopyranoside substrate by spectrophotometry based Lineweaver-Burk plot analysis.
Experiment [5] relates to HepG2. Description: Induction of glucose consumption in human HepG2 cells at 1 uM incubated for 24 hrs. It counts as functional, cell-based.
The subject of experiment [6] is HepG2. Description: Induction of glucose consumption in human HepG2 cells at 1 mM incubated for 24 hrs. It counts as functional, cell-based.

Activity calls are given as the source filed them. No cut-off for these calls is given here. A value given as a limit tells only on which side of the number the result lay.

By IC50 is commonly meant the concentration needed to halve the response being measured. Take `CCOC(=O)/C=C1\Oc2cc(OCc3ccc(OC)cc3)ccc2C1=O`: the IC50 in experiment [1] was found to be 33.4 µM.

Consider `COc1cc2c(cc1-c1ccc(F)cc1)C(=O)/C(=C/c1ccccc1)O2`, for which, in experiment [1], the IC50 is greater than 100 µM.

`O=C1/C(=C/c2cccc(O)c2)Oc2cc(O)ccc21` displayed an IC50 in experiment [1] greater than 100 µM.

As for `COc1cc2c(cc1-c1ccc(F)cc1)C(=O)CO2`, the inhibition entry in the experiment with Saccharomyces cerevisiae [2], in the experiment on Saccharomyces cerevisiae [3] and in the experiment with Saccharomyces cerevisiae [4] was “Active” throughout. The compound further showed an IC50 in experiment [1] of 9.88 µM. Also, the outcome in the experiment with HepG2 [5] was Active.

For `COc1ccc(COc2cc3c(cc2-c2ccccc2)C(=O)CO3)cc1`, it took 10.6 µM to reach half-maximal inhibition in experiment [1] (IC50). The result in the experiment on HepG2 [5] was inactive.

`O=C1/C(=C/c2ccccc2)Oc2cc(O)c(-c3ccc(C(F)(F)F)cc3)cc21` gave an IC50 in experiment [1] of 30.9 µM. In the experiment on HepG2 [5], the result was Active.

Turning to `COc1cc2c(cc1-c1ccccc1)C(=O)CO2`, half-maximal inhibition in experiment [1] (IC50) required 20.1 µM.

As to `COc1cc2c(cc1-c1ccccc1)C(=O)/C(=C/c1ccccc1)O2`, the IC50 in experiment [1] is greater than 100 µM.

The compound `COc1ccc(COc2cc3c(cc2-c2ccc(C(F)(F)F)cc2)C(=O)CO3)cc1` came in with an IC50 in experiment [1] of 10.9 µM.

With `O=C1c2ccc(O)cc2OC1Cc1ccc(O)c(O)c1` (stereo unspecified), in experiment [1], the IC50 came out at 63.4 µM. Compared with the last compound, the IC50 is about 5.8-fold higher.

As to `O=C1/C(=C/c2ccccc2O)Oc2cc(O)ccc21`, 93 µM corresponded to half-maximal inhibition in experiment [1] (IC50).

The compound `C[C@H]1O[C@H](O[C@H]2[C@H](O)[C@@H](O)[C@@H](O[C@H]3[C@H](O)[C@@H](O)C(O)O[C@@H]3CO)O[C@@H]2CO)[C@H](O)[C@@H](O)[C@@H]1N[C@H]1C=C(CO)[C@@H](O)[C@H](O)[C@H]1O` (stereo partly specified) [ACARBOSE] gave an IC50 in experiment [1] of 50.3 µM.

As for `O=C1/C(=C/c2ccccc2)Oc2cc(O)ccc21`, the IC50 in experiment [1] is greater than 100 µM.

In the case of `CCOC(=O)/C=C1\Oc2cc(O)c(-c3ccc(F)cc3)cc2C1=O`, half-maximal inhibition in experiment [1] (IC50) required 11.1 µM.

The compound `CCOC(=O)/C=C1\Oc2cc(OC)c(-c3ccc(F)cc3)cc2C1=O` showed an IC50 in experiment [1] of 26.6 µM.

In experiment [1], `COc1ccc(/C=C2\Oc3cc(O)ccc3C2=O)cc1OC` registered an IC50 greater than 100 µM.

`COc1ccc(COc2cc3c(cc2-c2ccc(F)cc2)C(=O)CO3)cc1`: in experiment [1], the IC50 came to 24.9 µM. This counts as double-digit micromolar.

For `CN(C)C(=N)NC(=N)N`, the outcome in the experiment with HepG2 [6] was Active.

In turn, `O=C1/C(=C/c2ccc(O)cc2O)Oc2cc(O)ccc21` yielded an IC50 in experiment [1] of 79.2 µM.

For `O=C1/C(=C/c2ccc(O)c(O)c2)Oc2cc(O)ccc21` [SULFURETIN], the midpoint of inhibition in experiment [1], the IC50, lay at 67.6 µM.

The compound `COc1ccc(COc2ccc3c(c2)OCC3=O)cc1` displayed an IC50 in experiment [1] greater than 100 µM.

In turn, `CCOC(=O)/C=C1\Oc2cc(O)c(-c3ccc(C(F)(F)F)cc3)cc2C1=O` had an IC50 in experiment [1] of 14.3 µM. That is a double-digit micromolar value.

As to `COc1ccc(COc2ccc3c(c2)O/C(=C\c2ccccc2)C3=O)cc1`, the IC50 in experiment [1] stood at 19.8 µM.

As to `COc1cc2c(cc1-c1ccc(C(F)(F)F)cc1)C(=O)CO2`, in experiment [1], inhibition was half-maximal at 21.2 µM (IC50).

Regarding `O=C1/C(=C/c2ccc(O)cc2)Oc2cc(O)ccc21`, the concentration for half-maximal inhibition (IC50) in experiment [1] was determined as 76.7 µM.

The record behind these values is ChEMBL document CHEMBL4043096, “Synthesis of 6-hydroxyaurone analogues and evaluation of their α-glucosidase inhibitory and glucose consumption-promoting activity: Development of highly active 5,6-disubstituted derivatives” (Bioorg Med Chem Lett, 2017).
